The text below walks through data of US12661347B2 (Dr. Falk Pharma GmbH, priority 2020, dated 2026).

The structures appear in SMILES notation. Read-outs that look alike come from different tables or passages of the source.

In one series the target is T1, TG2 (Homo sapiens, UniProt P21980).
T1 sequence (P21980 1-687): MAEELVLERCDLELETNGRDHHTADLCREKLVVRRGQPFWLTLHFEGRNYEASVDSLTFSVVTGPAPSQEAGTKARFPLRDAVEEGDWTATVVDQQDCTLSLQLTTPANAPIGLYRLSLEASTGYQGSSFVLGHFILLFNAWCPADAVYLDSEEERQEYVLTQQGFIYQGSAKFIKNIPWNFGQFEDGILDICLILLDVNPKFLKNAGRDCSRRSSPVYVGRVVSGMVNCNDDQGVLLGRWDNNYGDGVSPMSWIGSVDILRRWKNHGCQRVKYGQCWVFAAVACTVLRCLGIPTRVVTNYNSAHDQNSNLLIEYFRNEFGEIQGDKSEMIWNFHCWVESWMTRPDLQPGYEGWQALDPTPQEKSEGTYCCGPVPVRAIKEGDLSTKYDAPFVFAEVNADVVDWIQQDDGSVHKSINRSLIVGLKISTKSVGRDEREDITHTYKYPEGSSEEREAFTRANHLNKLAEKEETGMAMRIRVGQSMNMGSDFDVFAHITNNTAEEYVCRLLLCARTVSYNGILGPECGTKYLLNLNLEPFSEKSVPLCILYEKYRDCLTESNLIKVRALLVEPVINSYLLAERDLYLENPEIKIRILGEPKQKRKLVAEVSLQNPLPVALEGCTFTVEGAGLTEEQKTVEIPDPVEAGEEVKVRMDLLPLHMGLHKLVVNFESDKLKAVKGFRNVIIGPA
Kind of series: Correlation of human pharmacokinetic data with in vitro TG2 inhibition (TG2-mediated deamidation of gluten). An excerpt:
For the estimation of the therapeutic effective human dose, the drug concentration determined in vivo is compared with the drug concentrations resulting in an inhibition of the enzyme activity of TG2 in vitro (FIG. 2). Thereby, the TG2-mediated deamidation of gluten serves as a marker reaction. […] The 90% inhibition at IC90 can be regarded as maximal pharmacodynamic effect.

The nature of series [1]: Pharmacokinetic after oral administration of the systemic formulation in healthy volunteers (plasma, HPLC-MS/MS). In kind it is in vivo, human. As to the method:
The pharmacokinetic of (S,E)-methyl-7-(1-(2-(2-ethylbutylamino)-2-oxoethyl)-2-oxo-1,2-dihydro-pyridin-3-ylamino)-6-(1-methyl-1H-imidazole-5-carboxamido)-7-oxohept-2-enoate (compound of formula (I)) was investigated in healthy volunteers. Cohorts of 18 subjects each were treated with an oral daily dose of 10, 20, 50 and 100 mg compound of formula (I), respectively over a time period of 7 days.
The determination of said compound in blood plasma was performed by means of a previously validated HPLC-MS/MS method.

Series [2] is described as follows: Comparison of Cmax of the formulation (human) with the plain compound (animals), doses as human-equivalent-dose. To be noted: formulation in human vs drug as suspension in animals. It is filed as in vivo, human; monkeys, pigs, rabbits, rats and mice. As to the method:
Due to regulatory and ethical reasons pharmacokinetic data with the plain compound were only generated in animals but not in human subjects. The pharmacokinetic data of the plain compound were derived from several studies in monkeys, pigs, rabbits, rats and mice. In all studies the compound was administered orally after suspension in 0.5% (w/v) methylcellulose in water, pH 5±0.5. Blood samples were taken at various time points within 24 h after drug administration and quantified by means of a previously validated HPLC-MS/MS method. […] In order to compile the data from different species, doses were converted into human-equivalent-dose (HED) taking into account differences in the body surface area between species. The widely accepted species-specific conversion factors defined in the FDA guideline “Estimating the Maximum Safe Starting Dose in Initial Clinical Trials for Therapeutics in Adult Healthy Volunteers” (Issue date 2005) were used.

A short description of series [3]: Saturation solubility in the pH-range 1 to 6.8 (HPLC/UV). In kind it is physicochemical.
Series [4] in a line: Simulation of the gastrointestinal tract, transfer model (donor medium to FaSSIF acceptor medium). It is filed as physicochemical. As to the method:
The solubility of the dose as well as the dissolution velocity under physiological conditions are critical parameters for the oral availability at the target site.
The transfer model consists of a vessel with 125 ml donor medium and a vessel with 500 m acceptor medium. The donor medium is transferred by means of pump (Piston pump Sotax CP7) in the acceptor medium so that 625 ml liquid is present in the acceptor vessel at the end of the experiment. The transfer rate amounts 10 ml/min. The donor medium is an artificial gastric juice in a sober state, and contains 34.2 mM sodium chloride (NaCl) in 0.1 hydrogen chloride (HCl). The acceptor medium consists of artificial […] in a sober state (FaSSIF) and contains 3 mM sodium taurocholate, and […] lecithine in phosphate buffer with a pH-value of 6.5. The temperature of the acceptor medium is adjusted to 37.5° C.±0.5° C. For the simulation of the gastrointestine motility, the acceptor medium is stirred continuously with a stirring paddle (50 rpm). A calibrated stirring paddle apparatus 2 according to the conditions of the USP (Sotax AT7 Smart) as an acceptor vessel is used. In FIG. 5, a scheme of the apparatus is illustrated.
The capsule was added to the donor medium.

The subject of series [5] is adult patients with Celiac Disease (CeD). Briefly: 6-week treatment of adult Celiac Disease patients challenged with 3 g daily gluten, placebo-controlled. In kind it is in vivo, human. As to the method: Patients, who were in clinical and histological remission at start of the study were challenged with 3 grams daily gluten intake and randomized to receive placebo or one of 3 doses of the compound of formula (I), i.e. 10 mg, 50 mg or 100 mg.
Each morning after at least 6 hours of fasting, patients took the study drug orally, followed by one biscuit containing 3 g of gluten 30 minutes later, before breakfast. Throughout the 6-week study, patients were required to continue their strict gluten free diet.
The primary endpoint of the study was, whether the compound of formula (I) could prevent gluten-induced change in intestinal mucosal morphology. Before start (baseline) and after end of the 6 weeks of treatment endoscopies were conducted by an experienced gastroenterologist. Four endoscopy forceps biopsy samples with one biopsy bite per pass were taken from the second and third part of the duodenum and preserved in a PAXgene fixative containers. Tissue slides of the biopsies were scanned as whole-slide images and the villous height (VH) and crypt depth (CrD) in the mucosal samples were measured. In addition, the density of CD3+ intra-epithelial lymphocytes (IELs), an indicator of inflammation, was counted. Symptoms of CeD the patients were recorded by patient-reported outcomes (PROs) and measured by the Celiac Symptom Index (CSI) (Ref1) and Celiac Disease Questionnaire (CDQ) (Ref2).

A short description of series [6]: Side effects in humans at doses of up to 500 mg. In kind it is in vivo. The procedure: Moreover, side effects related to potential off-target actions were not observed in humans even at doses of up to 500 mg. As aforementioned, this is particularly surprising due to the fact that TG2 is ubiquitously expressed in almost all cell types and cell compartments, it is present on the cell surface and gets secreted to the extracellular matrix, and is present in various organs, and thus it could be envisioned that off-target effects would be most likely.

For series [7], the target named is T2, small intestinal tissue transglutaminase (TG2) (Mus musculus, UniProt P21981).
T2 construct: from tissue; host or cells: small intestine (jejunum) and colon of the treated animals
T2 sequence (P21981 1-686): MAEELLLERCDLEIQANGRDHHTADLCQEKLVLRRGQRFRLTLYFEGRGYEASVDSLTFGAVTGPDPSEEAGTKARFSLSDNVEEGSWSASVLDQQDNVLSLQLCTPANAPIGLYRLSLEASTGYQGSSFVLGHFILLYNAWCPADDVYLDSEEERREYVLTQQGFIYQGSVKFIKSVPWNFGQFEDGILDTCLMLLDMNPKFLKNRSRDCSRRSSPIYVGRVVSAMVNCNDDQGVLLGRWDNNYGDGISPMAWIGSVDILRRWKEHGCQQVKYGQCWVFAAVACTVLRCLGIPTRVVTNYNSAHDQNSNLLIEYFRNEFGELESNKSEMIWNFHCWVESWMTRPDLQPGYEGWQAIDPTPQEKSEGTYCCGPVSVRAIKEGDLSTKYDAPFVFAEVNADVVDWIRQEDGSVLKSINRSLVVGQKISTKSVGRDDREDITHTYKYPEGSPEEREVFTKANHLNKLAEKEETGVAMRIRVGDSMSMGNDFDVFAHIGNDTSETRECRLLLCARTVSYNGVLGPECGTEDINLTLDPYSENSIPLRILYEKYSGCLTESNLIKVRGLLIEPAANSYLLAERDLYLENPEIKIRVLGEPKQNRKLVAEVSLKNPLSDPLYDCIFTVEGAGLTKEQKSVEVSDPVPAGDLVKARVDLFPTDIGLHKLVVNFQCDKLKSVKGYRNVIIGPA
The settings on record: plain, unformulated compound, cited from earlier work.

Regarding `CCC(CC)CNC(=O)Cn1cccc(NC(=O)[C@H](CC/C=C/C(=O)OC)NC(=O)c2cncn2C)c1=O` [(S,E)-methyl-7-(1-(2-(2-ethylbutylamino)-2-oxoethyl)-2-oxo-1,2-dihydro-pyridin-3-ylamino)-6-(1-methyl-1H-imidazole-5-carboxamido)-7-oxohept-2-enoate], on TG2 (human), the “dose sufficient to achieve a therapeutic effective drug concentration” value was in the range of 20 to 50 mg.

On to `CCC(CC)CNC(=O)Cn1cccc(NC(=O)[C@H](CC/C=C/C(=O)OC)NC(=O)c2cncn2C)c1=O` [compound of formula (I), (S,E)-methyl-7-(1-(2-(2-ethylbutylamino)-2-oxoethyl)-2-oxo-1,2-dihydro-pyridin-3-ylamino)-6-(1-methyl-1H-imidazole-5-carboxamido)-7-oxohept-2-enoate], for which the “increase of drug concentration with dose” value in series [1] (dose range 10-100 mg, formulation) is recorded as “dose-proportionally”. Moreover, the Tmax in series [1] (human, plasma, oral daily dose 10, 20, 50, 100 mg for 7 days, hard gelatine capsule of example 2, read-out: tmax (maximum of plasma drug level after administration)) is ~1 h. Also, the “drug level in vivo compared with in vitro TG2 inhibition” value on TG2 (dose of 10 mg) was “half maximal inhibition (IC50) of TG2 is already achieved”; at TG2 (dose of 50 mg of the new developed formulation), “exceeding the IC90”. Also, in series [2], the “drug concentration normalized to body weight versus animal studies with suspension” value is on record as “remarkably higher”. Besides, the “saturation solubility at pH=6.8 (duodenum) compared with pH~1” value in series [3] was “much lower”. Also, the solubility is 200 µg/mL in series [4] (FaSSIF (acceptor medium), FaSSIF, phosphate buffer pH 6.5, read-out: solubility in the acceptor medium); 180 µg/mL in series [4] (FaSSIF medium, pH 6.5, fassif, thermodynamic from solid, pH-value of 6.5, read-out: saturation solubility of the pure drug); 4400 µg/mL in series [4] (artificial gastric juice, sober state (donor medium), simulated gastric fluid, 34.2 mM NaCl in 0.1 HCl, read-out: solubility in the donor medium). Also, the “effect of gluten on VH:CrD (mucosal deterioration)” value in series [5] (10 mg dose, baseline to week 6) is “prevented mucosal deterioration to a lesser degree”. Besides, in series [5] (10 mg, 50 mg and 100 mg groups, increase = better quality of life), the “CDQ scores, change from baseline to week 6” value is reported as “increased”. Further, the “effect of gluten on VH:CrD (villus height-to-crypt depth ratio)” value in series [5] (daily dose 50 mg, baseline to week 6) is on record as “almost completely prevented the deleterious effect of gluten on VH:CrD”; in series [5] (daily dose 100 mg, baseline to week 6) it was “almost completely prevented the deleterious effect of gluten on VH:CrD”. For the same molecule, the “gluten-induced symptoms and quality of life” value in series [5] (hard gelatine capsule formulation of example 2) is given as “significantly improved”. Also, the “safety profile (frequency and severity of adverse events)” value in series [5] (hard gelatine capsule formulation of example 2, 6 weeks) was “comparable to placebo”. For the same molecule, the intestinal mucosal injury result in series [5] (hard gelatine capsule formulation of example 2, moderate dose of daily gluten) is recorded as “effectively prevented intestinal mucosal injury”. Moreover, in series [6], the “side effects related to potential off-target actions” value is “not observed”. The “activity of intestinal TG2” value in series [7] (TG2 activated by poly(I:C)) was “reduced the activity of intestinal TG2 to normal levels”. Moreover, the intestinal inflammation entry in series [7] is “subdued intestinal inflammation”. In addition, the safety of administration entry in series [7] is recorded as “safe”.
